Structures can show the parent of a compound that is named as a salt.
Test system: Staphylococcus aureus Smith
Experiment: MIC assay, modified agar dilution (CLSI), S. aureus Smith
Assay type: cell-based
Settings: agar dilution, 35° C., 16-20 hr, lowest concentration that completely inhibited growth; for MIC: Staphylococcus aureus, read-out: S_aureus_Smith_WT_MIC
Protocol: The potency of antibacterial agents was measured using the Minimal Inhibitory Concentration (MIC) assay. The assay measures the ability of test agents to inhibit the growth of bacteria on agar-containing medium.
The bacterial test strains used were exemplified by Staphylococcus aureus Smith, Enterococcus faecium A2373, Streptococcus pneumoniae IID554, and Escherichia coli ATCC 25922. All strains were maintained as frozen stocks held at −80° C. in skim milk. Other bacterial test strains are well known to those skilled in the art and can be used for testing.
Mueller Hinton Agar (MHA BBL; Becton Dickinson and Company, Sparks, Md.) was used as the medium. MHA was supplemented with 5% defibrinated horse blood (DHB; Nippon Biotest Laboratories inc.) to support the growth of S. pneumoniae and E. faecium.
MIC values were determined using a modified agar dilution procedure described by the Clinical and Laboratory Standards Institute (CLSI; Methods for Dilution Antimicrobial Susceptibility Tests for Bacteria That Grow Aerobically; Approved Standard—Eighth Edition. CLSI document M07-A8 [ISBN 1-56238-689-1]. Clinical and Laboratory Standards Institute, 940 West Valley Road, Suite 1400, Wayne, Pa. 19087-1898 USA, 2009).
Stock solutions (6.4 mgmL) of test compounds were prepared in 100% ultrapure dimethyl sulfoxide (DMSO; source) on the day of the assay. Subsequent serial dilutions were performed to generate solutions with concentrations ranging from 6.4 to 0.0002 mgmL in 100% DMSO.
Agar medium containing test compound was prepared by adding the dilutions of antimicrobial solution to molten MHA at a temperature of 45-50° C. The agar and antimicrobial solution were mixed thoroughly, poured into petri dishes, and allowed to solidify at room temperature. The final concentration of test compounds in the MHA medium ranged from 128 to 0.001 μg/mL with two-fold dilutions. MHA plates lacking antibacterial compound were used for growth controls.
Prior to susceptibility testing, the bacterial isolates were removed from frozen storage, thawed at room temperature, sub-cultured to MHA medium and incubated overnight at 35° C. S. pneumoniae and E. faecium were subcultured on MHA supplemented with 5% DHB at 35° C. with […]. Colonies from each plate were suspended in normal saline. This suspension was adjusted to the turbidity of a 0.5 McFarland standard, 1-2×10^8 colony forming units (CFU) per mL, and diluted 100-fold to 1-2×10^6 CFUmL.
Suspensions of bacterial cultures were applied to the surface of MHA plates containing test compound as well as to a growth control plate lacking test compound using an inoculum-replicating device with 4 mm pins. The replicating device applied 5 uL of the bacterial suspension such that each spot contained approx. 1×10^4 CFU. Plates were dried for about 40 min and incubated at 35° C. for 16-20 hr prior to scoring.

Structure (SMILES) | S_aureus_Smith_WT_MIC [µg/mL] | S_aureus_Smith_WT_MIC (Hydrochloride) [µg/mL] | other results
COc1ccc2ncc(Cl)c(C(O)CC34CCC(NCc5ccc6c(n5)NC(=O)CO6)(CC3)CC4)c2n1 (single isomer, unassigned) [Example 13a, 6-((4-(2-(3-Chloro-6-methoxy-1,5-naphthyridin-4-yl)-2-hydroxyethyl)bicyclo[2.2.2]octan-1-ylamino)methyl)-2H-pyrido[3,2-b][1,4]oxazin-3(4H)-one] | 0.0310 | – | –
COc1ccc2ncc(Cl)c(C(O)CC34CCC(NCc5ccc6c(n5)NC(=O)CO6)(CC3)CC4)c2n1 (single isomer, unassigned) [Example 13b, 6-((4-(2-(3-Chloro-6-methoxy-1,5-naphthyridin-4-yl)-2-hydroxyethyl)bicyclo[2.2.2]octan-1-ylamino)methyl)-2H-pyrido[3,2-b][1,4]oxazin-3(4H)-one] | 0.0630 | – | –
COc1ccc2ncc(Cl)c(CC(O)C34CCC(NCc5ccc6c(n5)NC(=O)CO6)(CC3)CC4)c2n1.Cl (single isomer, unassigned) [Example 14a, 6-((4-(2-(3-Chloro-6-methoxy-1,5-naphthyridin-4-yl)-1-hydroxyethyl)bicyclo[2.2.2]octan-1-ylamino)methyl)-2H-pyrido[3,2-b][1,4]oxazin-3(4H)-one Hydrochloride] | – | – | MIC: 0.031 µg/mL
COc1ccc2ncc(Cl)c(CC(O)C34CCC(NCc5ccc6c(n5)NC(=O)CO6)(CC3)CC4)c2n1.Cl (single isomer, unassigned) [Example 14b, 6-((4-(2-(3-Chloro-6-methoxy-1,5-naphthyridin-4-yl)-1-hydroxyethyl)bicyclo[2.2.2]octan-1-ylamino)methyl)-2H-pyrido[3,2-b][1,4]oxazin-3(4H)-one Hydrochloride] | 0.0310 | – | –
COc1ccc2ncc(F)c(CC(O)C34CCC(NCc5ccc6c(n5)NC(=O)CO6)(CC3)CO4)c2n1.Cl (single isomer, unassigned) [Example 20b, 6-((1-(2-(3-Fluoro-6-methoxy-1,5-naphthyridin-4-yl)-1-hydroxyethyl)-2-oxabicyclo[2.2.2]octan-4-ylamino)methyl)-2H-pyrido[3,2-b][1,4]oxazin-3(4H)-one Hydrochloride] | 0.0630 | – | –
COc1ccc2ncc(F)c(CC(N)C34CCC(NCc5ccc6c(n5)NC(=O)CO6)(CC3)CO4)c2n1 (single isomer, unassigned) [Example 21a, 6-((1-(1-Amino-2-(3-fluoro-6-methoxy-1,5-naphthyridin-4-yl)ethyl)-2-oxabicyclo[2.2.2]octan-4-ylamino)methyl)-2H-pyrido[3,2-b][1,4]oxazin-3(4H)-one Dihydrochloride] | – | – | MIC: 0.25 µg/mL
COc1ccc2ncc(F)c(CC(N)C34CCC(NCc5ccc6c(n5)NC(=O)CO6)(CC3)CO4)c2n1 (single isomer, unassigned) [Example 21b, 6-((1-(1-Amino-2-(3-fluoro-6-methoxy-1,5-naphthyridin-4-yl)ethyl)-2-oxabicyclo[2.2.2]octan-4-ylamino)methyl)-2H-pyrido[3,2-b][1,4]oxazin-3(4H)-one Dihydrochloride] | – | – | S_aureus_Smith_WT_MIC (Dihydrochloride): 0.125 µg/mL
COc1ccc2ncc(F)c(C(O)C(O)C34CCC(NCc5ccc6c(n5)NC(=O)CO6)(CC3)CO4)c2n1.Cl (single isomer, unassigned) [Example 26a, 6-((1-(2-(3-Fluoro-6-methoxy-1,5-naphthyridin-4-yl)-1,2-dihydroxyethyl)-2-oxabicyclo[2.2.2]octan-4-ylamino)methyl)-2H-pyrido[3,2-b][1,4]oxazin-3(4H)-one Hydrochloride] | – | 0.250 | –
COc1ccc2ncc(F)c(C(O)C(O)C34CCC(NCc5ccc6c(n5)NC(=O)CO6)(CC3)CO4)c2n1.Cl (single isomer, unassigned) [Example 26b, 6-((1-(2-(3-Fluoro-6-methoxy-1,5-naphthyridin-4-yl)-1,2-dihydroxyethyl)-2-oxabicyclo[2.2.2]octan-4-ylamino)methyl)-2H-pyrido[3,2-b][1,4]oxazin-3(4H)-one Hydrochloride] | – | 1.00 | –
COc1ccc2ncc(F)c(C3OC(=O)OC3C34CCC(NCc5ccc6c(n5)NC(=O)CO6)(CC3)CO4)c2n1.Cl (single isomer, unassigned) [Example 27a, 6-((1-(5-(3-Fluoro-6-methoxy-1,5-naphthyridin-4-yl)-2-oxo-1,3-dioxolan-4-yl)-2-oxabicyclo[2.2.2]octan-4-ylamino)methyl)-2H-pyrido[3,2-b][1,4]oxazin-3(4H)-one Hydrochloride] | – | 0.250 | –
COc1ccc2ncc(F)c(C3OC(=O)OC3C34CCC(NCc5ccc6c(n5)NC(=O)CO6)(CC3)CO4)c2n1.Cl (single isomer, unassigned) [Example 27b, 6-((1-(5-(3-fluoro-6-methoxy-1,5-naphthyridin-4-yl)-2-oxo-1,3-dioxolan-4-yl)-2-oxabicyclo[2.2.2]octan-4-ylamino)methyl)-2H-pyrido[3,2-b][1,4]oxazin-3(4H)-one hydrochloride] | – | 2.00 | –
COc1ccc2ncc(=O)n(CC(O)C34CCC(NCc5ccc6c(n5)NC(=O)CO6)(CC3)CO4)c2n1.Cl (single isomer, unassigned) [Example 51a, 6-(((1-(1-Hydroxy-2-(6-methoxy-3-oxopyrido[2,3-b]pyrazin-4(3H)-yl)ethyl)-2-oxabicyclo[2.2.2]octan-4-yl)amino)methyl)-2H-pyrido[3,2-b][1,4]oxazin-3(4H)-one Hydrochloride] | – | 0.0310 | –
COc1ccc2ncc(=O)n(CC(O)C34CCC(NCc5ccc6c(n5)NC(=O)CO6)(CC3)CO4)c2n1.Cl (single isomer, unassigned) [Example 51b, 6-(((1-(1-hydroxy-2-(6-methoxy-3-oxopyrido[2,3-b]pyrazin-4(3H)-yl)ethyl)-2-oxabicyclo[2.2.2]octan-4-yl)amino)methyl)-2H-pyrido[3,2-b][1,4]oxazin-3(4H)-one hydrochloride] | – | 0.0630 | –
COc1ccc2ccc(=O)n(CC(O)C34CCC(NCc5ccc6c(n5)NC(=O)CO6)(CC3)CO4)c2n1 (single isomer, unassigned) [Example 52a, 6-(((1-(1-Hydroxy-2-(7-methoxy-2-oxo-1,8-naphthyridin-1(2H)-yl)ethyl)-2-oxabicyclo[2.2.2]octan-4-yl)amino)methyl)-2H-pyrido[3,2-b][1,4]oxazin-3(4H)-one] | 0.0310 | – | –
COc1ccc2ccc(=O)n(CC(O)C34CCC(NCc5ccc6c(n5)NC(=O)CO6)(CC3)CO4)c2n1 (single isomer, unassigned) [Example 52b, 6-(((1-(1-Hydroxy-2-(7-methoxy-2-oxo-1,8-naphthyridin-1(2H)-yl)ethyl)-2-oxabicyclo[2.2.2]octan-4-yl)amino)methyl)-2H-pyrido[3,2-b][1,4]oxazin-3(4H)-one] | 0.0630 | – | –
COc1cnc2ccc(=O)n(CC(O)C34CCC(NCc5ccc6c(n5)NC(=O)CO6)(CC3)CO4)c2c1 (single isomer, unassigned) [Example 54a, 6-(((1-(1-Hydroxy-2-(7-methoxy-2-oxo-1,5-naphthyridin-1(2H)-yl)ethyl)-2-oxabicyclo[2.2.2]octan-4-yl)amino)methyl)-2H-pyrido[3,2-b][1,4]oxazin-3(4H)-one] | 0.250 | – | –
COc1cnc2ccc(=O)n(CC(O)C34CCC(NCc5ccc6c(n5)NC(=O)CO6)(CC3)CO4)c2c1 (single isomer, unassigned) [Example 54b, 6-(((1-(1-hydroxy-2-(7-methoxy-2-oxo-1,5-naphthyridin-1(2H)-yl)ethyl)-2-oxabicyclo[2.2.2]octan-4-yl)amino)methyl)-2H-pyrido[3,2-b][1,4]oxazin-3(4H)-one] | 0.0160 | – | –
O=C1COc2ccc(CNC34CCC(C(O)Cn5c(=O)ccc6ncc(F)cc65)(CC3)OC4)nc2N1 (single isomer, unassigned) [Example 55a, 6-((1-(2-(7-Fluoro-2-oxo-1,5-naphthyridin-1(2H)-yl)-1-hydroxyethyl)-2-oxabicyclo[2.2.2]octan-4-ylamino)methyl)-2H-pyrido[3,2-b][1,4]oxazin-3(4H)-one] | 1.00 | – | –

Source: US20140243302A1, “BRIDGED BICYCLIC COMPOUNDS FOR THE TREATMENT OF BACTERIAL INFECTIONS” (priority 2011, published 2014)
